Measured values: patent US8617818B2, “Compositions and methods for diagnosis and prognosis of cancer and progression, and for screening anti-cancer agents” (Tufts Medical Center, priority 2009, dated 2013)

Tested on: MCF10A cells
Assay: Transwell migration assay
Assay type: cell-based, human
Conditions: TGFβ 20 ng/mL
Protocol: Transwell migration assays were performed according to Irie et al., 2005 J. Cell Biol. 171: 1023. MCF10A cells were transfected with a negative control siRNA designed to have no sequence similarity to a human transcript sequence (#AM4611) or siRNAs for Akt1 (#S660) or Akt2 (#S1216), or siRNAs for both Akt 1 and Akt2 (50 nM). Twenty four hours after transfection, cells were cultured overnight in assay medium (MCF10A growth medium containing 2% serum±TGFβ (20 ng/mL)). Sixteen hours later, cells were trypsinized and 10^5 cells were added to the top chambers of
24-well transwell plates (8 μm pore size; BD Bioscience, Bedford, Mass.). The bottom chambers were filled with assay medium. […] The significance of variability between a given group and its corresponding control was determined with the unpaired t test.
The mRNAs encoding Akt1 and Akt2, which are present in similar abundance in untransfected MCF10A cells (FIG. 10), were respectively knocked down by transfection with small interfering RNA (siRNA) directed against Akt1 or Akt2. […] After transfection with these siRNAs, the cells were analyzed for the abundance of Zeb1, Zeb2, and E-cadherin before and 24 hours after treatment with TGFβ. […] Parallel cultures of similarly treated cells were therefore used to measured cell migration by means of a Transwell cell migration assay.

TGFβ was tested, and the “enhancement of cell migration” value (Akt1 siRNA-transfected MCF10A cells) was 22 times and the “enhancement of cell migration” value (untransfected MCF10A cells) was 7.7 times.
